Laboratory results reported in ChEMBL document CHEMBL1159114, “Novel bis-arylsulfonamides and aryl sulfonimides as inactivators of plasminogen activator inhibitor-1 (PAI-1)” (Bioorg Med Chem Lett, 2010).

What was measured:
[1] = target: T1, Plasminogen activator inhibitor 1 (Homo sapiens, UniProt P05121); assay: Inhibition of human recombinant PAI1 assessed as rate of AMC release after 30 mins
[2] = target: Antithrombin-III (Homo sapiens, UniProt P01008); assay: Inhibition of antithrombin-3 assessed as residual alpha-thrombin activity
Chain of Antithrombin-III (P01008 whole entry): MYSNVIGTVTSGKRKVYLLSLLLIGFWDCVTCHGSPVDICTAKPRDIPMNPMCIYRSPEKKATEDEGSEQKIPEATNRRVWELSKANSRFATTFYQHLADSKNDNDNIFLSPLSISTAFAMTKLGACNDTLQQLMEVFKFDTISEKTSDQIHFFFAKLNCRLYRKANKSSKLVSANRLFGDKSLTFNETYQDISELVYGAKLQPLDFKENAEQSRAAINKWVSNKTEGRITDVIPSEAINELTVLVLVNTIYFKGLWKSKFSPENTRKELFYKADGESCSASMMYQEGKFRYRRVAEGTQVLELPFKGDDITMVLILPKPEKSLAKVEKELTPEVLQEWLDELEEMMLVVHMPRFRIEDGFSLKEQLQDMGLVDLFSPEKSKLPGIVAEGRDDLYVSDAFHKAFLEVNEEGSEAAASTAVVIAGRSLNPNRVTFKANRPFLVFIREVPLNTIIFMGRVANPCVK

[3] = target: T1, Plasminogen activator inhibitor 1; assay: Inhibition of human recombinant PAI1 assessed as rate of AMC release at 300 uM after 30 mins

T1 sequence (P05121 whole entry): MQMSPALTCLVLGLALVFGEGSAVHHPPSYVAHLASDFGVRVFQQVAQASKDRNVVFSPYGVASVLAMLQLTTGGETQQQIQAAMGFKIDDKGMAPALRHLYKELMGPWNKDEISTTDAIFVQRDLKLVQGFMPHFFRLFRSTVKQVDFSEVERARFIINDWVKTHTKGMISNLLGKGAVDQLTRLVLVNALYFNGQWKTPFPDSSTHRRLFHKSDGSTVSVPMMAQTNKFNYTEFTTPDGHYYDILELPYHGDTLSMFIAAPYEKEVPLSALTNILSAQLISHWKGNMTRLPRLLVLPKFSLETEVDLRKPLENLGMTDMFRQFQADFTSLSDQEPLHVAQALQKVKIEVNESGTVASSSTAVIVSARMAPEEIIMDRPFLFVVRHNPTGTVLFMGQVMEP

Compound | IC50 [1] | IC50 [2] | inhibition [3]
CCN(CCN(CC)S(=O)(=O)c1ccc(O)cc1)S(=O)(=O)c1ccc(O)cc1 | > 300 µM | > 300 µM | 
CCN(CCN(CC)S(=O)(=O)c1ccccc1)S(=O)(=O)c1ccccc1 | > 300 µM | > 300 µM | 
O=S(=O)(NCCCCNS(=O)(=O)c1ccc(O)c(O)c1)c1ccc(O)c(O)c1 | > 3000 µM | > 3000 µM | 
CCN(CCN(CC)S(=O)(=O)c1cc(O)ccc1O)S(=O)(=O)c1cc(O)ccc1O | > 300 µM | > 300 µM | < 30%
O=S(=O)(c1ccc(O)c(O)c1)N(Cc1ccccc1)S(=O)(=O)c1ccc(O)c(O)c1 | 4.82 µM | > 300 µM | 
CCN(CCN(CC)S(=O)(=O)c1ccc(OC)c(OC)c1)S(=O)(=O)c1ccc(OC)c(OC)c1 | > 300 µM | > 300 µM | 
CCCCCCN(S(=O)(=O)c1ccc(O)c(O)c1)S(=O)(=O)c1ccc(O)c(O)c1 | 0.284 µM | > 300 µM | 
O=S(=O)(c1ccc(O)c(O)c1)N(C1CCCCC1)S(=O)(=O)c1ccc(O)c(O)c1 | 0.594 µM | > 300 µM | 
CCN(CCN(CC)S(=O)(=O)c1cc(F)c(O)c(F)c1)S(=O)(=O)c1cc(F)c(O)c(F)c1 | 128 µM | > 3000 µM | 
CCCN(S(=O)(=O)c1ccc(O)c(O)c1)S(=O)(=O)c1ccc(O)c(O)c1 | 2.67 µM | > 1000 µM | 
O=S(=O)(c1ccc(O)c(O)c1)N1CCN(S(=O)(=O)c2ccc(O)c(O)c2)CC1 | > 300 µM | > 300 µM | < 30%
CCN(CCN(CC)S(=O)(=O)c1ccc(O)c(O)c1)S(=O)(=O)c1ccc(O)c(O)c1 | 9.32 µM | > 1000 µM | 
CCN(CCN(CC)S(=O)(=O)c1cccc(O)c1)S(=O)(=O)c1cccc(O)c1 | 343 µM | > 1000 µM | 
O=S(=O)(NCCCCCCNS(=O)(=O)c1ccc(O)c(O)c1)c1ccc(O)c(O)c1 | 1380 µM | > 3000 µM | 
O=S(=O)(NCCNS(=O)(=O)c1ccc(O)c(O)c1)c1ccc(O)c(O)c1 | 518 µM | > 3000 µM | 
